From US7754686B2, “Stabilized FGF formulations containing reducing agents” (Novartis Vaccines and Diagnostics, Inc., priority 2000, dated 2010)

What was measured:
[1] = Storage stability of liquid FGF-2 formulations by RP-HPLC (% main peak); type: physicochemical; conditions: 0-10 mM DTT, FIGS. 1-3
Protocol: Reversed Phase HPLC (RP-HPLC) was performed using a Waters 600S controller and a Waters 717 autosampler. Separations were accomplished on a Zorbax 300SB-CN, 4.6 mm ID×15 cm, 5:, cyano column with sample detection at 214 nm on a Waters 486 UV detector. Samples were run at 1.0 mL/min and injection volumes were 50 μL (˜15 μg of protein per injection). […] Much of FGF-2 instability in pharmaceutical formulations can be attributed to oxidation. The stability of FGF-2 in different formulations can be quantitated by measuring the retention of the main peak using RP-HPLC. This main peak corresponds to the FGF-2 that remains in the reduced form. Using the analytical procedures described herein, the storage stability of FGF-2 under several conditions was followed by monitoring changes in the RP-HPLC main peak as a function of storage time at 4° C., 17° C., and 30° C. Experiments were conducted to determine the appropriate levels of dithiothreitol (DTT) required for maximum stability of FGF-2 formulations. Concentrations of DTT from 0 to 10 mM were examined in formulations between pH 5.5 and pH 6.5. In this example, all formulations were liquids and were produced from the same lot of bulk drug. Formulations were stored at 4° C., 17° C., and 30° C. […] Stability of the formulations was assessed by a number of assays. […]

[2] = Storage stability of lyophilized FGF-2 formulations by RP-HPLC (% main peak); type: physicochemical; conditions: 0.35 and 3.5 mg/ml, 10 mM DTT, pH 6.0, storage at 30° C. for 1 year, FIG. 7
Protocol: Reversed Phase HPLC (RP-HPLC) was performed using a Waters 600S controller and a Waters 717 autosampler. Separations were accomplished on a Zorbax 300SB-CN, 4.6 mm ID×15 cm, 5:, cyano column with sample detection at 214 nm on a Waters 486 UV detector. Samples were run at 1.0 mL/min and injection volumes were 50 μL (˜15 μg of protein per injection).
rhFGF-2 was lyophilized using the following cycle: Vials were placed on pre-cool shelves set at 10° C. The shelf temperature was ramped at 40° C./hour to −50° C. where the vials were frozen for 2 hours. The temperature of the shelves was then ramped at 40° C. per hour to −25° C. and held for 2 hours to crystallize the glycine in the formulation. A vacuum of 50 μm was then initiated, and primary drying was accomplished over 32 hours. After primary drying was complete, the shelf temperature was ramped at 25° C./hour to 40° C. for 8 hours. The temperature was then reduced to 4° C. and the vials were stoppered and capped.
FGF-2 stability was examined in both liquid and lyophilized (freeze-dried) formulations using RP-HPLC. As in the previous study, liquid formulations were stored at 4° C., 17° C., and 30° C.
Lyophilized formulations were stored at 40° C. and 50° C. […]
Lyophilized formulations were stored for 12 months at 4° C., 25° C. and 30° C. Stability was monitored with a number of stability indicating assays. […]

Molecule | protection of FGF-2 from oxidation [1] | degradation (RP-HPLC main peak) [2]
O[C@H](CS)[C@H](O)CS (racemic) [DTT, dithiothreitol] | protects FGF-2 from oxidation in a concentration-dependent manner | –
rhFGF-2: recombinant human FGF-2 having the sequence set forth in SEQ ID NO:1 | – | little (if any) detectable degradation
